Laboratory results taken from ChEMBL document CHEMBL1201862, “PubChem BioAssay data set” (2004).
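In this assay, cells in 96-well plates receive the compound at five concentrations for 48 hours. Endpoints are linearly interpolated between the surrounding concentrations. GI50: concentration for 50% inhibition of growth.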 Calls of active or inactive are those of the source. No stated cut-off is given here; in the data, active = GI50 up to about 1.1 µM and inactive = higher. Square brackets hold non-standard residues; d marks the D form. Peptide text beside a SMILES is read from it. * marks the point of attachment. Phe(4-NO2) = N[CH](Cc1ccc([N+](=O)[O-])cc1)C(=O)O; Cbz = O=C(OCc1ccccc1)*

Key:
Test in all cases: DTP human tumour cell line panel, 48 h
ACHN = system: ACHN
CCRF-CEM = system: CCRF-CEM
PC-3 = system: PC-3
HL-60 = system: HL-60
SW-620 = system: SW-620
TK-10 = system: TK-10
SK-MEL-28 = system: SK-MEL-28
HOP-62 = system: HOP-62
786-0 = system: 786-0
MCF7 = system: MCF7
SNB-19 = system: SNB-19
SF-295 = system: SF-295
Hs-578T = system: Hs-578T
UACC-62 = system: UACC-62
MDA-MB-231 = system: MDA-MB-231
COLO 205 = system: COLO 205
U-251 = system: U-251
SN12C = system: SN12C
NCI-H460 = system: NCI-H460
SF-268 = system: SF-268
SK-MEL-2 = system: SK-MEL-2
HCT-15 = system: HCT-15
A498 = system: A498
SF-539 = system: SF-539
A549 = system: A549
SK-MEL-5 = system: SK-MEL-5
EKVX = system: EKVX
HT-29 = system: HT-29
NCI-H226 = system: NCI-H226
KM12 = system: KM12
MDA-MB-435 = system: MDA-MB-435
MDA-N = system: MDA-N
SK-OV-3 = system: SK-OV-3
UACC-257 = system: UACC-257
SR = system: SR
Malme-3M = system: Malme-3M
RXF 393 = system: RXF 393
HCC 2998 = system: HCC 2998
NCI-H23 = system: NCI-H23
LOX IMVI = system: LOX IMVI
CAKI-1 = system: CAKI-1
OVCAR-8 = system: OVCAR-8
NCI-H522 = system: NCI-H522
OVCAR-3 = system: OVCAR-3
DU-145 = system: DU-145
HCT-116 = system: HCT-116
NCI/ADR-RES = system: NCI/ADR-RES
UO-31 = system: UO-31
T47D = system: T47D
MOLT-4 = system: MOLT-4
OVCAR-5 = system: OVCAR-5
BT-549 = system: BT-549
RPMI-8226 = system: RPMI-8226
M14 = system: M14
K562 = system: K562
OVCAR-4 = system: OVCAR-4
IGROV-1 = system: IGROV-1
SNB-75 = system: SNB-75

`COC(=O)c1cc(NC(=O)Cc2c[nH]c3ccccc23)cn1C` was tested, and the GI50 (ACHN) was 72.4 µM (inactive), the GI50 (CCRF-CEM) was 45.3 µM (inactive) and the GI50 (PC-3) was 44.6 µM (inactive). For the same molecule, the GI50 (HL-60) was > 100 µM (inactive), the GI50 (SW-620) was > 100 µM (inactive) and the GI50 (TK-10) was 87.9 µM (inactive). The GI50 (SK-MEL-28) was 42 µM (inactive), the GI50 (HOP-62) was 88.1 µM (inactive) and the GI50 (786-0) was > 100 µM (inactive). For the same molecule, the GI50 (MCF7) was 60.8 µM (inactive), the GI50 (SNB-19) was 70 µM (inactive) and the GI50 (SF-295) was > 100 µM (inactive). The GI50 (Hs-578T) was 33.7 µM (inactive), the GI50 (UACC-62) was 8.69 µM (inactive) and the GI50 (MDA-MB-231) was 27.4 µM (inactive). For the same molecule, the GI50 (COLO 205) was 82 µM (inactive), the GI50 (U-251) was 68.4 µM (inactive) and the GI50 (SN12C) was 42.9 µM (inactive). For the same molecule, the GI50 (NCI-H460) was 70.5 µM (inactive), the GI50 (SF-268) was 88.5 µM (inactive) and the GI50 (SK-MEL-2) was 81.7 µM (inactive). For the same molecule, the GI50 (HCT-15) was 62.5 µM, the GI50 (A498) was > 100 µM (inactive) and the GI50 (SF-539) was > 100 µM (inactive). For the same molecule, the GI50 (A549) was 70.5 µM (inactive), the GI50 (SK-MEL-5) was 70.3 µM (inactive) and the GI50 (EKVX) was > 100 µM (inactive). For the same molecule, the GI50 (HT-29) was 65.9 µM (inactive), the GI50 (NCI-H226) was 21.7 µM (inactive) and the GI50 (KM12) was > 100 µM (inactive). The GI50 (MDA-MB-435) was 55.8 µM (inactive), the GI50 (MDA-N) was > 100 µM (inactive) and the GI50 (SK-OV-3) was > 100 µM (inactive). For the same molecule, the GI50 (UACC-257) was > 100 µM (inactive), the GI50 (SR) was 39.4 µM (inactive) and the GI50 (Malme-3M) was 57.7 µM (inactive). The GI50 (RXF 393) was > 100 µM (inactive), the GI50 (HCC 2998) was 68.1 µM (inactive) and the GI50 (NCI-H23) was > 100 µM (inactive). The GI50 (LOX IMVI) was 58.3 µM (inactive), the GI50 (CAKI-1) was > 100 µM (inactive) and the GI50 (OVCAR-8) was 66.5 µM (inactive). The GI50 (NCI-H522) was 36.1 µM (inactive), the GI50 (OVCAR-3) was > 100 µM (inactive) and the GI50 (DU-145) was > 100 µM (inactive). The GI50 (HCT-116) was 71.4 µM (inactive), the GI50 (NCI/ADR-RES) was > 100 µM (inactive) and the GI50 (UO-31) was 23.6 µM (inactive). For the same molecule, the GI50 (T47D) was > 100 µM (inactive), the GI50 (MOLT-4) was 43.2 µM (inactive) and the GI50 (OVCAR-5) was > 100 µM (inactive). The GI50 (BT-549) was 57.5 µM (inactive), the GI50 (RPMI-8226) was 21.3 µM (inactive) and the GI50 (M14) was > 100 µM (inactive). The GI50 (K562) was 58.1 µM (inactive), the GI50 (OVCAR-4) was 40.4 µM (inactive) and the GI50 (IGROV-1) was 22.5 µM (inactive).

`CCCCCCC(N)(CCCCCC)C(=O)Nn1c(C)ccc1C` was tested, and the GI50 (ACHN) was 6.55 µM (inactive), the GI50 (CCRF-CEM) was > 100 µM (inactive) and the GI50 (PC-3) was 5.14 µM (inactive). For the same molecule, the GI50 (HL-60) was 5.36 µM (inactive), the GI50 (SW-620) was > 100 µM (inactive) and the GI50 (TK-10) was > 100 µM (inactive). The GI50 (SK-MEL-28) was > 100 µM (inactive), the GI50 (HOP-62) was > 100 µM (inactive) and the GI50 (786-0) was 28.6 µM (inactive). For the same molecule, the GI50 (MCF7) was 14.6 µM (inactive), the GI50 (SNB-19) was > 100 µM (inactive) and the GI50 (SF-295) was > 100 µM (inactive). For the same molecule, the GI50 (Hs-578T) was 18.8 µM (inactive), the GI50 (UACC-62) was 48 µM (inactive) and the GI50 (MDA-MB-231) was 88.3 µM (inactive). The GI50 (COLO 205) was 57.4 µM (inactive), the GI50 (U-251) was > 100 µM (inactive) and the GI50 (SN12C) was > 100 µM (inactive). For the same molecule, the GI50 (NCI-H460) was 31.8 µM (inactive), the GI50 (SF-268) was 16 µM (inactive) and the GI50 (SK-MEL-2) was > 100 µM (inactive). The GI50 (HCT-15) was 24 µM, the GI50 (A498) was > 100 µM (inactive) and the GI50 (A549) was 11.4 µM (inactive). The GI50 (SK-MEL-5) was 21.9 µM (inactive), the GI50 (EKVX) was 12 µM (inactive) and the GI50 (HT-29) was 28.4 µM (inactive). The GI50 (NCI-H226) was 43.7 µM (inactive), the GI50 (KM12) was 15.5 µM (inactive) and the GI50 (MDA-MB-435) was > 100 µM (inactive). The GI50 (MDA-N) was > 100 µM (inactive), the GI50 (SK-OV-3) was > 100 µM (inactive) and the GI50 (UACC-257) was 36.4 µM (inactive). The GI50 (SR) was 29.9 µM (inactive), the GI50 (Malme-3M) was > 100 µM (inactive) and the GI50 (RXF 393) was 25.7 µM (inactive). The GI50 (HCC 2998) was > 100 µM (inactive), the GI50 (SNB-75) was 29.4 µM (inactive) and the GI50 (NCI-H23) was 15.5 µM (inactive). The GI50 (OVCAR-8) was 50 µM (inactive), the GI50 (NCI-H522) was 53.8 µM (inactive) and the GI50 (OVCAR-3) was > 100 µM (inactive). The GI50 (DU-145) was > 100 µM (inactive), the GI50 (HCT-116) was 10.9 µM (inactive) and the GI50 (NCI/ADR-RES) was 16 µM (inactive). The GI50 (UO-31) was 25.1 µM (inactive), the GI50 (T47D) was 13.6 µM (inactive) and the GI50 (MOLT-4) was > 100 µM (inactive). The GI50 (OVCAR-5) was > 100 µM (inactive), the GI50 (BT-549) was > 100 µM (inactive) and the GI50 (RPMI-8226) was 13.6 µM (inactive). The GI50 (M14) was > 100 µM (inactive), the GI50 (K562) was > 100 µM (inactive) and the GI50 (OVCAR-4) was > 100 µM (inactive). The GI50 (IGROV-1) was > 100 µM (inactive).

`CCOC(=O)CCC(NC(=O)OCc1ccccc1)C(=O)NC(CCC(=O)OCC)C(=O)NC(CCC(=O)OCC)C(=O)NC(CCC(=O)OCC)C(=O)NC(CCC(=O)OCC)C(=O)NC(Cc1ccc([N+](=O)[O-])cc1)C(=O)NC(CCC(=O)OCC)C(=O)NC(CCC(=O)OCC)C(=O)NC(CCC(=O)OCC)C(=O)NC(CCC(=O)OCC)C(=O)NC(CCC(=O)OCC)C(=O)OCC` (stereo not given) (Cbz-E(OEt)E(OEt)E(OEt)E(OEt)E(OEt)[Phe(4-NO2)]E(OEt)E(OEt)E(OEt)E(OEt)E(OEt)-OEt; configuration not given here) was tested, and the GI50 (ACHN) was > 50 µM (inactive), the GI50 (CCRF-CEM) was > 50 µM (inactive) and the GI50 (PC-3) was > 50 µM (inactive). For the same molecule, the GI50 (HL-60) was > 50 µM (inactive), the GI50 (SW-620) was > 50 µM (inactive) and the GI50 (TK-10) was > 50 µM (inactive). For the same molecule, the GI50 (SK-MEL-28) was > 50 µM (inactive), the GI50 (HOP-62) was > 50 µM (inactive) and the GI50 (786-0) was > 50 µM (inactive). The GI50 (MCF7) was > 50 µM (inactive), the GI50 (SNB-19) was > 50 µM (inactive) and the GI50 (Hs-578T) was > 50 µM (inactive). For the same molecule, the GI50 (UACC-62) was > 50 µM (inactive), the GI50 (MDA-MB-231) was > 5 µM (inactive) and the GI50 (COLO 205) was > 50 µM (inactive). The GI50 (U-251) was > 50 µM (inactive), the GI50 (SN12C) was > 50 µM (inactive) and the GI50 (NCI-H460) was > 50 µM (inactive). For the same molecule, the GI50 (SF-268) was > 50 µM (inactive), the GI50 (SK-MEL-2) was > 50 µM (inactive) and the GI50 (HCT-15) was greater than 50 µM. For the same molecule, the GI50 (A498) was > 50 µM (inactive), the GI50 (SF-539) was > 50 µM (inactive) and the GI50 (A549) was > 50 µM (inactive). The GI50 (SK-MEL-5) was > 50 µM (inactive), the GI50 (EKVX) was > 50 µM (inactive) and the GI50 (HT-29) was > 50 µM (inactive). The GI50 (NCI-H226) was > 50 µM (inactive), the GI50 (KM12) was > 50 µM (inactive) and the GI50 (MDA-MB-435) was > 50 µM (inactive). The GI50 (MDA-N) was > 50 µM (inactive), the GI50 (SK-OV-3) was > 50 µM (inactive) and the GI50 (SR) was > 50 µM (inactive). For the same molecule, the GI50 (Malme-3M) was > 50 µM (inactive), the GI50 (RXF 393) was > 50 µM (inactive) and the GI50 (HCC 2998) was > 50 µM (inactive). The GI50 (SNB-75) was > 50 µM (inactive), the GI50 (NCI-H23) was > 50 µM (inactive) and the GI50 (LOX IMVI) was > 50 µM (inactive). The GI50 (NCI-H522) was > 50 µM (inactive), the GI50 (OVCAR-3) was > 50 µM (inactive) and the GI50 (DU-145) was > 50 µM (inactive). For the same molecule, the GI50 (NCI/ADR-RES) was > 50 µM (inactive), the GI50 (UO-31) was > 50 µM (inactive) and the GI50 (T47D) was > 50 µM (inactive). The GI50 (MOLT-4) was > 50 µM (inactive), the GI50 (OVCAR-5) was > 50 µM (inactive) and the GI50 (BT-549) was > 50 µM (inactive). For the same molecule, the GI50 (RPMI-8226) was > 50 µM (inactive), the GI50 (M14) was 16.8 µM (inactive) and the GI50 (K562) was > 50 µM (inactive). For the same molecule, the GI50 (OVCAR-4) was 23 µM (inactive) and the GI50 (IGROV-1) was > 50 µM (inactive).
